The record followed here is PubChem BioAssay (NCI).

Among the test systems are LOX IMVI melanoma; SW-620 colon; BT-549 breast; NCI-H23 lung; DU-145 prostate; COLO 205 colon; NCI/ADR-RES ovarian; UACC-257 melanoma; CAKI-1 renal; SN12C renal.
Assay in all cases: growth of human tumour cells (NCI), 48 h

Several values for one entry are separate records, joined by “and”; a condition that tells them apart may be missing. Equal values may be shown once.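 Each compound was tested at five concentrations against cells in 96-well plates for 48 hours. Abbreviation: GI50, concentration required for 50% inhibition of growth. At the TGI there is no net growth.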 Where only a bound is given, the exact number is not on record here.

For the compound `CN(C)c1ccc2nc3ccc(=[N+](C)C)cc-3sc2c1`, the GI50 with LOX IMVI melanoma was 0.404 µM and 0.65 µM; in the experiment with SW-620 colon, 0.344 µM and 0.657 µM; with BT-549 breast it was 9.74 µM and 3.26 µM; with NCI-H23 lung it was 0.322 µM and 0.597 µM; in the experiment with DU-145 prostate it was 3.4 µM and 3.86 µM; in the experiment on COLO 205 colon it was 0.497 µM and 0.47 µM. Besides, the GI50 with NCI/ADR-RES ovarian is 0.408 µM and 0.563 µM; with UACC-257 melanoma, 0.219 µM and 0.411 µM; in the experiment on CAKI-1 renal, 2.17 µM and 1.96 µM; in the experiment with SN12C renal, 0.71 µM and 1.38 µM. Moreover, the TGI in the experiment on LOX IMVI melanoma is 7.61 µM and 10.4 µM; with SW-620 colon it was 13.5 µM and 19.1 µM; in the experiment on BT-549 breast, 24.2 µM and 22.7 µM; with NCI-H23 lung, 4.99 µM and 12.7 µM; with DU-145 prostate, 16 µM and 14.8 µM; in the experiment on COLO 205 colon, 1.96 µM and 5.3 µM. The TGI in the experiment with NCI/ADR-RES ovarian is 23.1 µM and 14.2 µM; in the experiment with UACC-257 melanoma, 0.711 µM and 2.36 µM; in the experiment with CAKI-1 renal, 19.4 µM and 8.5 µM; in the experiment with SN12C renal, 7.05 µM and 12.6 µM.

Take `Cc1ccc(S(=O)(=O)Nc2cccc3[nH]c(C(F)(F)F)nc23)cc1`: the GI50 with LOX IMVI melanoma is 0.829 µM; in the experiment with SW-620 colon, 0.382 µM; in the experiment on BT-549 breast, 0.62 µM; in the experiment on NCI-H23 lung, 1.66 µM; with DU-145 prostate it was 1.2 µM; in the experiment with COLO 205 colon it was 0.387 µM. Also, the GI50 in the experiment on NCI/ADR-RES ovarian is 0.412 µM; with UACC-257 melanoma it was 1.32 µM; in the experiment with CAKI-1 renal it was 0.337 µM; in the experiment with SN12C renal, 2.72 µM. Further, the TGI was greater than 100 µM in the experiment on LOX IMVI melanoma; greater than 100 µM in the experiment with SW-620 colon; 52 µM in the experiment on BT-549 breast; 41.5 µM in the experiment on NCI-H23 lung; greater than 39.9 µM with DU-145 prostate; 10.7 µM with COLO 205 colon. In addition, the TGI in the experiment with NCI/ADR-RES ovarian is 42.9 µM; in the experiment with UACC-257 melanoma it was greater than 42 µM; in the experiment with CAKI-1 renal it was 24.4 µM; in the experiment on SN12C renal, greater than 89.2 µM.

With `O=C(COc1ccc(/C=C2\Oc3ccccc3C2=O)cc1)Nc1nc2c(s1)CCCC2`, the GI50 in the experiment with LOX IMVI melanoma was 0.0175 µM; in the experiment with SW-620 colon, 4.07 µM; in the experiment with BT-549 breast, 4.44 µM; in the experiment with NCI-H23 lung it was 11.9 µM; with DU-145 prostate, 0.417 µM; in the experiment on COLO 205 colon, greater than 73.2 µM. Moreover, the GI50 was 2.19 µM in the experiment with NCI/ADR-RES ovarian, 0.0449 µM with UACC-257 melanoma, 0.801 µM in the experiment on CAKI-1 renal and 4.64 µM in the experiment with SN12C renal. The TGI was 0.0317 µM with LOX IMVI melanoma; greater than 100 µM in the experiment with SW-620 colon; greater than 49.8 µM with BT-549 breast; greater than 100 µM with NCI-H23 lung; 27.4 µM in the experiment with DU-145 prostate; greater than 100 µM in the experiment on COLO 205 colon. For the same compound, the TGI in the experiment with NCI/ADR-RES ovarian is greater than 59.1 µM; with UACC-257 melanoma it was 0.835 µM; in the experiment with CAKI-1 renal it was 8.28 µM; in the experiment with SN12C renal it was greater than 92 µM.

In the case of `CC[C@H](CO)Nc1nc(NCc2ccccc2)n2ncc(C(C)C)c2n1`, the GI50 with LOX IMVI melanoma was 1.07 µM; in the experiment with SW-620 colon, 1.38 µM; in the experiment with BT-549 breast, 1.56 µM; in the experiment with NCI-H23 lung, 1.71 µM; in the experiment on DU-145 prostate, 1.3 µM; with COLO 205 colon it was 1.12 µM. Further, the GI50 in the experiment with NCI/ADR-RES ovarian was 2.08 µM; in the experiment on UACC-257 melanoma, 3.56 µM; in the experiment with CAKI-1 renal, 1.02 µM; with SN12C renal, 2.41 µM. For the same compound, the TGI with LOX IMVI melanoma is 10.3 µM; in the experiment with SW-620 colon, 5.56 µM; in the experiment with BT-549 breast it was 5.29 µM; with NCI-H23 lung, 7.79 µM; in the experiment with DU-145 prostate, 9.52 µM; with COLO 205 colon, 3.15 µM. For the same compound, the TGI in the experiment with NCI/ADR-RES ovarian was 15.7 µM; with UACC-257 melanoma, 15 µM; in the experiment on CAKI-1 renal, 8.35 µM; in the experiment with SN12C renal, 14.4 µM.

Take `O=C(Nc1cccc(NC(=O)Nc2cc(C(F)(F)F)ccc2Cl)c1)Nc1cc(C(F)(F)F)ccc1Cl`: the GI50 was 3.47 µM with LOX IMVI melanoma; 3.28 µM in the experiment on SW-620 colon; 5.55 µM with BT-549 breast; 2.61 µM in the experiment with NCI-H23 lung; 4.11 µM in the experiment on DU-145 prostate; 3.44 µM with COLO 205 colon. For the same compound, the GI50 was 3.01 µM with NCI/ADR-RES ovarian, 4.29 µM with UACC-257 melanoma, 3.14 µM in the experiment on CAKI-1 renal and 2.56 µM with SN12C renal. Also, the TGI was 15.4 µM in the experiment with LOX IMVI melanoma; greater than 100 µM in the experiment with SW-620 colon; 38.4 µM in the experiment on BT-549 breast; 15.9 µM in the experiment with NCI-H23 lung; 17.8 µM in the experiment with DU-145 prostate; greater than 100 µM in the experiment with COLO 205 colon. For the same compound, the TGI with NCI/ADR-RES ovarian was 17.7 µM; in the experiment on UACC-257 melanoma it was 41.4 µM; in the experiment on CAKI-1 renal, greater than 100 µM; in the experiment with SN12C renal, 23.9 µM.

Turning to `O=C(/C=C/c1ccc([N+](=O)[O-])cc1)c1ccc2c3c(cccc13)CC2`, the GI50 in the experiment on LOX IMVI melanoma is 4.26 µM; with SW-620 colon, 2.34 µM; in the experiment on BT-549 breast it was 23.6 µM; in the experiment on NCI-H23 lung, 29.1 µM; in the experiment with DU-145 prostate it was 4.23 µM; in the experiment with COLO 205 colon, 4.98 µM. Besides, the GI50 in the experiment with NCI/ADR-RES ovarian is 20.8 µM; in the experiment on UACC-257 melanoma, greater than 46 µM; in the experiment with CAKI-1 renal, 9.69 µM; in the experiment with SN12C renal, greater than 34.6 µM. Further, the TGI in the experiment with LOX IMVI melanoma was 17.6 µM; in the experiment with SW-620 colon, 6.62 µM; with BT-549 breast, greater than 90.4 µM; in the experiment with NCI-H23 lung it was greater than 100 µM; with DU-145 prostate it was greater than 40.9 µM; in the experiment with COLO 205 colon, greater than 25.4 µM. Besides, the TGI in the experiment with NCI/ADR-RES ovarian was greater than 100 µM; in the experiment on UACC-257 melanoma it was greater than 94.4 µM; in the experiment on CAKI-1 renal, greater than 100 µM; with SN12C renal it was greater than 100 µM.

`Cc1c2c(nn1C)CSCc1cc(n(C)n1)CSc1cc(c3ccccc3c1)OCCCc1c(C(=O)O)n(C)c3c-2c(Cl)ccc13`: the GI50 is 2.87 µM with LOX IMVI melanoma; 4.26 µM in the experiment with SW-620 colon; 2.52 µM in the experiment on BT-549 breast; 1.78 µM with NCI-H23 lung; 4.52 µM in the experiment on DU-145 prostate; 3.36 µM in the experiment with COLO 205 colon. Also, the GI50 in the experiment with NCI/ADR-RES ovarian is 14.2 µM; in the experiment with UACC-257 melanoma, 4.16 µM; with CAKI-1 renal, 4.98 µM; in the experiment on SN12C renal, 3.38 µM. Also, the TGI in the experiment on LOX IMVI melanoma was 12.1 µM; in the experiment on SW-620 colon, 16 µM; with BT-549 breast it was 11.2 µM; with NCI-H23 lung it was 10.6 µM; in the experiment with DU-145 prostate it was 15.9 µM; with COLO 205 colon, 12.2 µM. Besides, the TGI was 30 µM with NCI/ADR-RES ovarian, 16 µM in the experiment on UACC-257 melanoma, 17.4 µM in the experiment on CAKI-1 renal and 12.6 µM in the experiment with SN12C renal.
